The values that follow are results of earlier work, collected in US20220143046A1, “COMPOSITION AND METHODS FOR RECTAL DELIVERY OF 4-AAPA AND 5-ASA COMPOUNDS” (9 METERS BIOPHARMA, INC., priority 2019, published 2022).

SMILES strings stand for the structures.

For the data set the following is noted: oral formulation; two Phase 1 clinical trials for mild to moderate ulcerative colitis.

With `O=C(O)Cc1ccc(/N=N/c2ccc(O)c(C(=O)O)c2)cc1` [INN-108, 5-(4-carboxymethyl-phenylazo)-2-hydroxybenzoic acid], the systemic absorption result is “no evidence of systemic absorption”.
